Assay results published in patent US10434094B2, “Combination of checkpoint kinase 1 inhibitors and wee 1 kinase inhibitors” (Array BioPharma Inc., priority 2010, dated 2019).
Where two headings read alike, the source gives them in different places.

Tests used:
HEL92.1.7 cells = assay: cellular viability by CellTiter Blue assay, single agents and matrix combination; format: cell-based; details: Homo sapiens, HEL 92.1.7, 72 h, single agent, three days of treatment
Procedure: HEL92.1.7 cells were plated in 96-well plates and then treated with Compound 2 or MK-1775 as single agents. After three days of treatment, cellular viability was assessed by CellTiter Blue assay (Promega). Data represent the mean±S.E. (n=5 for Compound 2, n=2 for MK-1775). […] HEL92.1.7 cells were plated in 96-well plates and then treated with combinations of Compound 2 and MK-1775 in matrix fashion at the indicated concentrations. Three days after treatment cellular viability was assessed by CellTiter Blue assay. […] Data represent the average of two independent experiments (triplicate plates were averaged for each individual experiment).

[1] = cited from earlier work

Row | SMILES | IC50 (HEL92.1.7 cells) | MTD ([1]; multiple dose (5 BID doses) in combination with carboplatin (AUC 5), trial ongoing) | MTD ([1]; multiple dose (5 BID doses) in combination with cisplatin (75 mg/m^2), trial ongoing) | MTD ([1]; multiple dose in combination with gemcitabine (1000 mg/m^2), BID day 1) | MTD ([1]; multiple dose in combination with gemcitabine (1000 mg/m^2), BID day 2) | MTD ([1]; multiple dose in combination with gemcitabine (1000 mg/m^2), QD day 3) | MTD ([1]; single dose in combination with carboplatin (AUC 5), patients with advanced solid tumors) | MTD ([1]; single dose in combination with cisplatin (75 mg/m^2), patients with advanced solid tumors) | MTD ([1]; single dose in combination with gemcitabine (1000 mg/m^2), patients with advanced solid tumors)
1 | C=CCn1c(=O)c2cnc(Nc3ccc(N4CCN(C)CC4)cc3)nc2n1-c1cccc(C(C)(C)O)n1 [MK-1775] | 103 nM | 225 mg | 125 mg | 50 mg | 25 mg | 25 mg | 325 mg | 200 mg | 200 mg
2 | CC(C)C(=O)Nc1c[nH]c2ncc(Br)c(N3CCC[C@@H](N)C3)c12 [Compound 2, (R)—N-(4-(3-aminopiperidin-1-yl)-5-bromo-1H-pyrrolo [2,3-b]pyridin-3-yl)isobutyramide] | 30 nM | – | – | – | – | – | – | – | –
